Molecular target: T1, β-amyloid (Aβ1-42) fibrils (Homo sapiens, UniProt P05067)
T1 construct: β-Amyloid peptide (Aβ1-42, 1 mg, Bachem); purchased Bachem
Assay: Dissociation constant (Kd) of [125I]TZDM on β-amyloid fibrils
Conditions: Aβ1-42 fibrils 10 nM, 10% ethanol, room temperature 3 hours, nonspecific binding with 2 μM ThT
Description: β-Amyloid peptide (Aβ1-42, 1 mg, Bachem) was completely dissolved in 1 mL of DMSO, 9 mL of phosphate buffered saline (PBS) (pH 7.4) was added thereto and well mixed. The resulting mixture was incubated at 37° C. for 60 minutes to form β-amyloid fibrils, 0.5 mL was taken and transferred to each e-tube and placed into a refrigerator maintained at −80° C.
Here, the nonspecific binding was performed using 2 μM Thioflavin T (ThT).

T1 sequence (P05067 672-713 limits assumed): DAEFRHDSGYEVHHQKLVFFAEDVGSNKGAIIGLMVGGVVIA

**Q.** For `CN(C)c1ccc(-c2nc3ccc([125I])cc3s2)cc1` [[^125I]TZDM, 2-[4-(N,N-dimethylamino)phenyl]-6-[^125I]iodobenzothiazole], which Kd is on record?
**A.** 0.13 nM

— patent US8497260B2, “2-arylbenzothiophene derivatives or pharmaceutically acceptable salts thereof, preparation method thereof, and pharmaceutical composition for the diagnosis or treatment of degenerative brain disease containing the same as active ingredient” (Industry-University Cooperation Foundation Sogang University, priority 2009, dated 2013)
